Measured values published in US20040110637A1, “Method of safening crops using isoxazoline carboxylates” (priority 2001, published 2004).

Assays:
Type in all cases: in vivo
[1] = system: TRZAS, Triticum aestivum (wheat), variety Ralle; assay: Wheat seed treatment with safener, then pre-emergence herbicide H2 (metolachlor); visual crop injury; conditions: for Safener effect in % reduction in crop injury: TRZAS
Description: (§1) The number of crop seeds that would be needed for each safener rate was calculated. Based on the weight of 100 seeds, sufficient seeds were weighed into screw top glass bottles approximately twice the volume of the seeds.
(§2) The prospective safeners were formulated as wettable powders or water dispersible granules. These formulations were weighed out so that the required rates (g a.i./kg seed) would be obtained. The samples were added to the seeds in the bottles and then sufficient water added to produce a slurry. The bottles were capped and then placed in an overhead shaker (set at medium speed for up to 1 hour) so that the seeds were evenly coated with the slurry. The bottles were uncapped and the seeds used in the pre- or post-emergence tests as described in sections 1.2 and 1.3.
(§3) As an alternative seed treatment method, active ingredient of the prospective safeners was weighed and dissolved in a solvent (e.g. acetone) and added to the seeds in the bottles. The solvent type and volume was selected based on prior experience so that it would have no negative impact on seed germination or subsequent plant growth. After shaking for up to 1 hour (overhead shaker) the seeds were spread out on paper in a fume cabinet to allow the remaining solvent to evaporate. The seeds were then used in the pre- or post-emergence tests as described in sections 1.2 and 1.3.
(§4) In tests in which larger quantities of seeds required treatment, the prospective safeners, either as formulated samples in water or as active ingredient dissolved in solvent were applied to seeds using a mini-rotostat apparatus. The seeds were allowed to dry for a short time before being used in the pre- or post-emergence tests as described in sections 1.2 and 1.3.
(§5) The safener treated seeds and untreated comparison seeds were sown into 7 to 13 cm round pots in a sandy loam soil and covered with approximately 0.5 to 1 cm of a 1 to 1 mix of sandy loam soil and sand. Herbicidal substances, as liquid (e.g. Emulsifiable concentrates) or dry (e.g. wettable powder) formulations, were diluted to the required concentrations in deionised water and applied to the soil surface using a track sprayer calibrated to deliver 300 to 800 litres of spray solution per hectare.
(§6) The pots were placed under good growing conditions in a glasshouse and a visual assessment of herbicidal effects made after 3 to 4 weeks after herbicide application. Assessment was on a percentage basis in comparison with untreated control plants (0%=no injury, 100%=complete kill).
Wheat or barley seeds were treated according to example 1.1. After sowing the herbicide was applied pre-emergent on the soil surface as described in example 1.2. After 3 to 4 weeks the results were visually scored in comparison with control plants (without seed treatment and herbicide treatment).

[2] = system: ZEAMA = Zea mays (maize), variety Lorenzo; assay: Corn seed treatment with safener, then pre-emergence herbicide H1 (isoxaflutole); visual crop injury; conditions: safener seed treatment 0.1 g a.i./kg seed + Herbicide H1 pre-emergent 100 g a.i./ha
Description: as §1, §2
(§7) As an alternative seed treatment method, active ingredient of the prospective safeners was weighed and dissolved in a solvent (e.g. acetone) and added to the seeds in the bottles. […]
(§8) In tests in which larger quantities of seeds required treatment, the prospective safeners, either as formulated samples in water or as active ingredient dissolved in solvent were applied to seeds using a mini-rotostat apparatus. […]
(§9) Corn seeds were treated according to example 1.1. […] After 3 to 4 weeks the results were visually scored in comparison with control plants (without seed treatment and herbicide treatment).

[3] = system: HORVS = Hordeum vulgare (barley), variety Boroness; assay: Barley seed treatment with safener, then pre-emergence herbicide H2 (metolachlor); visual crop injury; conditions: for Safener effect in % reduction in crop injury: HORVS
Description: as §1, §2, §3, §4, §5, §6
Wheat or barley seeds were treated according to example 1.1. […] After 3 to 4 weeks the results were visually scored in comparison with control plants (without seed treatment and herbicide treatment).

corn (variety Dea) = assay: Corn seed treatment with safener, then post-emergence herbicide H3 (diflufenzopyr + dicamba sodium salts); visual crop injury
Description: as §1, §2, §7, §8, §9

[4] = safener seed treatment 0.5 g a.i./kg seed + Herbicide H2 pre-emergent 700 g a.i./ha
[5] = safener seed treatment 1 g a.i./kg seed + Herbicide H2 pre-emergent 700 g a.i./ha
[6] = safener seed treatment 2 g a.i./kg seed + Herbicide H2 pre-emergent 700 g a.i./ha

`CCOC(=O)C1=NOC(c2ccccc2)(c2ccccc2)C1` [(lb)] was tested, and the “% injury to TRZAS” value [1, 4] was 10%, the “Safener effect in % reduction in crop injury” value (“Safener effect in % reduction” below) [1, 4] was 86% and the “% injury to TRZAS” value [1, 5] was 20%. The “Safener effect in % reduction” value [1, 5] was 73%, the “% injury to TRZAS” value [1, 6] was 15% and the “Safener effect in % reduction” value [1, 6] was 79%. The “Safener effect in % reduction” value ([2]; ZEAMA) was 71%, the “% injury to ZEAMA” value ([2]; after 3 to 4 weeks) was 10% and the “% injury to HORVS” value [3, 4] was 0%. The “Safener effect in % reduction” value [3, 4] was 100%, the “% injury to HORVS” value [3, 5] was 0% and the “Safener effect in % reduction” value [3, 5] was 100%. The “% injury to corn (variety Dea)” value (corn (variety Dea); safener seed treatment 0.01 g a.i./kg seed + Herbicide H3 500 g a.i./ha (head: pre-emergent; text: post-emergent at 2 to 3-leaf stage)) was 10% and the “Safener effect in % reduction” value (corn (variety Dea); safener seed treatment 0.01 g a.i./kg seed + Herbicide H3 500 g a.i./ha, corn variety Dea) was 57%.
